The values below come from patent publication US9012411B2, “Formulations from derivatives of curcumin, paclitaxel, and aspirin” (Organomed Corporation, priority 2009, dated 2015).

A word on the IC50: it is the concentration at which inhibition is half-maximal. For orientation: GI50 means the concentration giving 50% growth inhibition. A higher GI50 goes with lower sensitivity of the cells.

In data set [1] the test system is breast (SKBR3) cancer cell line. The data set can be described thus: Cellular inhibition, Alamar Blue. Type of data set: cell-based. Conditions: for inhibition of proliferation: skbr3, 48 hours. The protocol:
(§1) Assays were performed with 3 cancer cell lines: breast (SKBR3), pancreatic (Panc1), prostate (PC-3) and 1 normal (nor-cancer) cell line (WI-38). Compounds were delivered to the cells after dissolving in DMSO. Five dilutions per compound were tested on a total of 4 cell lines in 96 well plates. Cellular inhibition was measured using Alamar Blue. After addition of compound a 24 hour and 48 hour time point using fluorescent plate reader was taken. Data from plate reader was analyzed in the following way: % inhibition bar graphs, % inhibition line graphs and IC50 growth inhibition values. In Tables 7-14, IC50 units are Molar (M).
For orientation: Alamar Blue is a resazurin reagent that responds to reducing activity.

The subject of data set [2] is pancreatic (Panc1) cancer cell line. Put plainly: Cellular inhibition, Alamar Blue. Type of data set: cell-based. Conditions: for inhibition of proliferation: Panc-1, 48 hours. As for the experimental part:
as §1

The subject of data set [3] is prostate (PC-3) cancer cell line. Put plainly: Cellular inhibition, Alamar Blue. The following applies: for inhibition of proliferation: PC-3, 48 hours. Type of data set: cell-based. The protocol:
as §1

The test system of data set [4] is normal (non-cancer) cell line WI-38. Put plainly: Cellular inhibition, Alamar Blue. Type of data set: cell-based. The protocol:
as §1

For data set [5], the system named is carrageenan induced rat paw edema. The data set can be described thus: Carrageenan induced rat paw edema. Type of data set: in vivo, albino rats. Conditions: for Paw circumference: Example 8 (in vivo), 100 mg/kg oral with food; for Percent inhibition of paw edema (Std. Error): Example 9, 100 mg/kg oral with food. In general terms: In the carrageenan paw model, swelling and tenderness develop within hours.
Protocol: Animals were kept under 13 hour day night cycle. Animals were given standard diet and water was provided ad, libitum. All animals were acclimatized for at least one week before the experimental session. Animals were divided in to five groups. Each group consisted of 8 animals.
Pedal inflammation in albino rats of either sex was produced according to the method of Winter et al., (Proc Soc Exp Biol Med 1963; 111: 544-7). An injection was made with 0.1 ml of 1% carrageenan (SIGMA) suspension into the right hind foot of each rat in the plantar region. […] Control group 5 was given 0.5 ml saline and groups 1 and 2 received aspirin. Increase in linear paw circumference was measured by tying a piece of cotton thread round the rat's paw, and noting the point of intersection of two ends on a meter scale. This was taken as an index of increase in paw volume, which is a measure of oedema (Bamgbose S O A, Noamesi B K. Planta Med 1981; 42: 392-6). Measurements were taken immediately before and at 1, 2 and 3 hours after carrageenan injection. The inhibitory activity was calculated according to the following formula (Awe S O, Olajide O A, Adeboye J O, Makinde J M. Indian J Pharmacol 1998; 30: 38-42):
[formula] Ct-Linear paw circumference 3 hours after carrageenan injection and Co-Linear paw circumference before carrageenan injection.
Albino rats obtained from central animal house of institute were used in the study. The animals were kept under 12 hour day night cycle. Animals were given standard diet and water was provided ad libitum. All animals were acclimatized for at least one week before the experimental session. Animals were divided into twelve groups in the carrageenan induced paw edema and tail flick method. Each group consisted of 4 animal each.
Animals were divided into eight groups in the carrageenan induced paw edema and tail flick method. Each group consisted of 6 animal each. The groups received various chemicals as given in Table 16 by oral administration with food. The following methods were used to evaluate the activity of the compositions:
Pedal inflammation in albino rats of either sex was produced according to the method of Winter et al. (Proc. Soc. Exp. Biol. Med., 1963, 111: 544-547). An injection was made with 0.1 ml of 1% carrageenan (SIGMA) suspension into the right hind foot of each rat in the plantar region. The various chemicals were given 30 minutes before carrageenan injection. Increase in linear paw circumference was measured by tying a piece of cotton thread round the rat's paw, and noting the point of intersection of two ends on a meter scale. This was taken as an index of increase in paw volume, which is a measure of edema (Bamgbose, S. O. A. & Noamesi, B. K., Planta. Med., 1981, 42: 392-396). Measurements were taken immediately before and at 1, 2 and 3 hours after carrageenan injection. The inhibitory activity was calculated according to the following formula (Awe S O, Olajide O A, Adeboye J O, Makinde J M. Indian J. Pharmacol., 1998; 30: 38-42):
Animals were divided into six groups in the carrageenan induced paw edema and tail flick method. Each group consisted of 8 animals each. Carrageenan-induced rat paw edema and Tail flick test were performed as discussed above in Example 8. Data were analyzed using analysis of variance (ANOVA) with Posthoc Bonferroni multi-comparisons. P<0.05 was considered as statistically significant.

The test system of data set [6] is tail flick latency in rats. The data set can be described thus: Tail flick test (analgesic activity). Type of data set: in vivo, albino rats.
Protocol: Rats were screened for tail flip reaction with a cut-off time of 5 seconds. For each animal, the tail flick latency was obtained thrice before drug administration and mean was used as pre-drug latency. The tail flick latencies were measured at 0, 0.5, 1, 1.5, 2 and 3 h after administration chemicals.
Albino rats obtained from central animal house of institute were used in the study. The animals were kept under 12 hour day night cycle. Animals were given standard diet and water was provided ad libitum. All animals were acclimatized for at least one week before the experimental session. […] Each group consisted of 4 animal each.
Rats were screened for tail flip reaction with a cut-off time of 5 seconds. For each animal, the tail flick latency was obtained thrice before drug administration and mean was used as pre-drug latency. The tail flick latencies were measured at 0, 0.5, 1, 1.5, 2 and 3 h after administration of chemicals.
Each group consisted of 8 animals each. […] Data were analyzed using analysis of variance (ANOVA) with Posthoc Bonferroni multi-comparisons. P<0.05 was considered as statistically significant.
The next data set relates to PC3 cells. The data set can be described thus: GI50 (50% inhibition of cell growth), MTT assay, 72 hours. The following applies: Homo sapiens, PC-3, 72 h, PC3, 72 hours, 1 ng/ml to 10 ug/ml (Example 8). Type of data set: cell-based. As for the experimental part:
(§2) The cells were plated onto a 96 well plate and treated with different concentrations of the compounds from 1 ng/ml to 10 ug/ml for 72 hours followed by MTT assay.
(§3) The cells were plated onto a 96 well plate and treated with different concentrations of the compounds from 0.04 ng/ml to 400 ng/ml for 72 hours followed by MTT assay.
In general terms: Formazan colour is commonly taken as a measure of viable cells.

The next data set has as its system PANC-1 cells. The data set is described as above. Conditions: Homo sapiens, PANC-1, 72 h, 1 ng/ml to 10 ug/ml (Example 8). The format is cell-based. The protocol: as §2, §3
Data set [7] has as its system cancer cell lines SKBR3, Panc1, PC-3. Put plainly: Cellular inhibition, Alamar Blue, cancer cell lines taken together. The format is cell-based. The following applies: 24 hours. As for the experimental part: as §1
A short description of data set [8]: In vitro enzyme hydrolysis in human serum (HPLC). Type of data set: in vitro ADME. The following applies: 25% human serum; for Test compound Rate: rate of decomposition of test compound; for Salicyclic acid Rate: rate of release of salicylic acid; for Test compound Concentration: remaining test compound; for Salicyclic acid Concentration: salicylic acid released from test compound, 0.2 mg/mL.
Protocol: A 25% solution of human serum in 0.01M phosphate buffer was taken and the test compound (glucose aspirin or aspirin) were added to get a concentration of 0.2 mg/mL. The hydrolysis for the rate of release of salicylic acid and the rate of decomposition of the test compound were measured by HPLC.

[9] abbreviates: Example 5, 100 and 200 mg/kg i.p., rats.
The mark [10] stands for this setting: Example 9, 100 mg/kg oral with food, 30 min.
Setting [11] is: Example 9, 100 mg/kg oral with food, 60 min.
Setting [12] is: Example 9, 100 mg/kg oral with food, 90 min.
Where [13] appears, read: Example 9, 100 mg/kg oral with food, 120 min.
Where [14] appears, read: Example 9, 100 mg/kg oral with food, 180 min.
Where [15] appears, read: Example 9, 100 mg/kg oral with food, column headed min.

“Also recorded” adds a separate entry of the source. Structures can show the parent of a compound that is named as a salt. Marks after values point to notes of the source that are not given here.

Turning to `COc1cc(/C=C/C(=O)CC(=O)/C=C/c2ccc(O)c(OC)c2)ccc1O` [Curcumin], the IC50 in data set [1] (Homo sapiens, SK-BR-3, SKBR3, 24 hours) was determined as 84.1 µM; in data set [1] (Homo sapiens, SK-BR-3, SKBR3, 48 hours), 99.4 µM; in data set [2] (Homo sapiens, PANC-1, PANC1, 24 hours), 41.5 µM; in data set [2] (Homo sapiens, PANC-1, PANC1, 48 hours) it was 38.2 µM; in [3] (PC3, 24 hours), 29.5 µM; in data set [3] (PC3, 48 hours), 24.2 µM. Also, the IC50 in [4] (Homo sapiens, WI-38, WI38, 24 hours) was 1000 µM; in data set [4] (Homo sapiens, WI-38, WI38, 48 hours), 89.9 µM. In addition, the “inhibition of normal lung cells (WI-38)” value in data set [4] (24 hours, 100, 150 and 300 uM) was “over 20%”. The Paw circumference in [5] (0 h) came to 3.2 mm; in [5] (1 h) it was 3.68 mm; in data set [5] (2 h), 3.45 mm; in data set [5] (3 h), 3.53 mm. The “Tail flick latency time” value in [6] (Example 8 (in vivo), 100 mg/kg oral with food, 0 min) was 2.67 s; in data set [6] (Example 8 (in vivo), 100 mg/kg oral with food, 30 min), 2.58 s; in data set [6] (Example 8 (in vivo), 100 mg/kg oral with food, 60 min) it was 2.8* seconds; in data set [6] (Example 8 (in vivo), 100 mg/kg oral with food, 90 min), 3.18* seconds; in data set [6] (Example 8 (in vivo), 100 mg/kg oral with food, 120 min), 3.03 s; in data set [6] (Example 8 (in vivo), 100 mg/kg oral with food, 180 min), 2.68 s. For the same compound, the “Tail flick / analgesic activity (in words)” value in data set [6] (Example 8 (in vivo), oral, 100 mg/kg total (combinations 50 mg/kg each)) was “stronger activity at 60 and 90 minutes”.

As to `Nc1ccn([C@@H]2O[C@H](CO)[C@@H](O)C2(F)F)c(=O)n1` [NJ-92-1, Gemcitabine.HCl], the results for the GI50 with PC3 cells and in the data set with PANC-1 cells were 3.85 µg/mL and 7.18 µg/mL, respectively.

Regarding `CC(=O)Oc1ccccc1C(=O)O[C@@H]([C@H](O)[C@H](O)CO)[C@@H](O)C=O` [PMN II-168, 3-(2′-Acetyloxybenzoyl)-D-glucose], the “inhibition of cancer cell growth” value in [7] (300 uM) is listed as “up to 60%”; in data set [7] (four lower concentrations), 20%. Besides, the IC50 was determined as 201 µM in [1] (SKBR3, 24 hours); 87.8 µM in data set [1] (SKBR3, 48 hours); 399 µM in [2] (PANC1, 24 hours); 90.5 µM in data set [2] (PANC1, 48 hours); 83.2 µM in [3] (PC3, 24 hours); 81.4 µM in data set [3] (PC3, 48 hours). Further, the IC50 in data set [4] (WI38, 24 hours) turned out to be 376 µM; in [4] (WI38, 48 hours) it was 310 µM. In addition, the inhibition of proliferation in data set [1] (150 uM) is approximately 60%; in data set [1] (300 uM), “approximately 90%”; in data set [2] (150 uM) it was approximately 60%; in data set [2] (300 uM), approximately 70%; in data set [3] (150 uM) it was approximately 65%; in data set [3] (300 uM), approximately 85%. Further, the “Suppression of carrageenan-induced paw edema (in words)” value in data set [5] (setting [9]) is on record as “significantly suppressed carrageenan-induced paw edema”. In data set [8] (compared with aspirin), the “Hydrolysis rate in human serum (in words)” value is recorded as “much slower rate than aspirin”. Also, in data set [8] (decomposition of test compound, 0-180 min), the “Average rate, test compound” value was -3.3e-07 M/min. In addition, the “Test compound Rate” value is 0 M/min in data set [8] (0 min); 1.91e-07 M/min in data set [8] (30 min); -2.24e-07 M/min in [8] (60 min); -3.62e-07 M/min in data set [8] (90 min); -2.96e-07 M/min in [8] (120 min); -4.38e-07 M/min in data set [8] (180 min). In addition, the “Salicyclic acid Rate” value in data set [8] (0 min) amounted to 0 M/min; in [8] (30 min) it was 0 M/min; in data set [8] (120 min), 9.11e-07 M/min; in data set [8] (180 min), 1.97e-07 M/min. Further, the “Average rate, salicyclic acid” value in data set [8] (release of salicylic acid, 0-180 min) is 9.08e-08 M/min. Besides, the “Test compound Concentration” value in data set [8] (0 min) worked out at 198 µM; in data set [8] (30 min) it was 203 µM; in [8] (60 min) it was 184 µM; in [8] (90 min), 165 µM; in data set [8] (120 min), 162 µM; in data set [8] (180 min), 119 µM. Also, the “Salicyclic acid Concentration” value was found to be 0 µM in [8] (0 min); 0 µM in data set [8] (30 min); 2.7 µM in data set [8] (60 min); 2.75 µM in [8] (90 min); 10.9 µM in data set [8] (120 min); 35.4 µM in data set [8] (180 min). Besides, in data set [6] (setting [9]), the “Tail flick latency / analgesic activity (in words)” value is reported as “significant analgesic activity”.

With Curcumin diglutarate [NJ-104-5], the “Percent inhibition of paw edema (Std. Error)” value is 49.26 (3.94) % in data set [5] (1 hr), 37.50 (5.11) % in data set [5] (2 hr) and 20.05 (8.34) % in data set [5] (3 hr). In [6] (Example 9, 100 mg/kg oral), the “Analgesic activity, tail flick (in words)” value is “strong activity at 90 and 180 minutes; also recorded: strong analgesic activity”. Besides, the “Tail flick latency time” value was 3.5625 s in [6] (setting [10]); 3.6125 s in data set [6] (setting [11]); 3.7375 s in [6] (setting [12]); 3.05 s in data set [6] (setting [13]); 3.5625 s in data set [6] (setting [14]); 3.05 s in data set [6] (setting [15]).

curcumin-glutarate [MT-76-1]: the IC50 in data set [1] (SKBR3, 24 hours) is 169 µM; in [1] (SKBR3, 48 hours), 118 µM; in data set [2] (PANC1, 24 hours), 35.4 µM; in data set [2] (PANC1, 48 hours), 123 µM; in [3] (PC3, 24 hours), 127 µM; in [3] (PC3, 48 hours) it was 71.6 µM. The IC50 in data set [4] (WI38, 24 hours) came out at 298 µM; in data set [4] (WI38, 48 hours), 166 µM.

Turning to diacetylcurcumin [NJ-58-1], the IC50 in [1] (SKBR3, 24 hours) was 171 µM; in data set [1] (SKBR3, 48 hours), 125 µM; in data set [2] (PANC1, 24 hours), 268 µM; in data set [2] (PANC1, 48 hours) it was 133 µM; in data set [3] (PC3, 24 hours), 96.1 µM; in data set [3] (PC3, 48 hours), 67 µM. Also, the 50% inhibitory concentration (IC50) in data set [4] (WI38, 24 hours) amounted to 4390 µM; in data set [4] (WI38, 48 hours), 155 µM. Further, the “inhibition of normal lung cells (WI-38)” value in [4] (24 hours) is “less than 10%”. Moreover, the “Anti-inflammatory activity, paw edema (in words)” value in data set [5] (Example 9, 100 mg/kg oral) is given as “strong”. In addition, the “Percent inhibition of paw edema (Std. Error)” value is listed as 76% in data set [5] (1 hr, listed as Curcumin diacetate); 76.49 (8.35) % in data set [5] (1 hr, listed as NJ-104-4); 80% in [5] (2 hr, listed as Curcumin diacetate); 80.56 (5.84) % in data set [5] (2 hr, listed as NJ-104-4); 76% in data set [5] (3 hr, listed as Curcumin diacetate); 76.74 (8.22) % in data set [5] (3 hr, listed as NJ-104-4). Further, the “Tail flick latency time” value in data set [6] (setting [10]) was determined as 3.675 s; in data set [6] (setting [11]) it was 3.6125 s; in [6] (setting [12]), 3.6375 s; in [6] (setting [13]) it was 3.4375 s; in data set [6] (setting [14]) it was 3.675 s; in data set [6] (setting [15]) it was 3.4375 s.
